According to patent US7767685B2, “Adenosine A2B receptor antagonists” (King Pharmaceuticals Research and Development, Inc., priority 2006, dated 2010):
pKi: −log10 of the molar value.

How the values were obtained:
[1] = target: T1, human A1 adenosine receptors (Homo sapiens, UniProt P30542); assay: Displacement of [3H]DPCPX binding at human A1 adenosine receptors expressed in CHO cells; conditions: [3H]DPCPX displacement, n = 3-6, geometric mean (95% confidence limits), read-out: Ki hA1
T1 construct: expressed in transfected cells; host or cells: CHO cells (membranes)
T1 sequence (P30542 1-326): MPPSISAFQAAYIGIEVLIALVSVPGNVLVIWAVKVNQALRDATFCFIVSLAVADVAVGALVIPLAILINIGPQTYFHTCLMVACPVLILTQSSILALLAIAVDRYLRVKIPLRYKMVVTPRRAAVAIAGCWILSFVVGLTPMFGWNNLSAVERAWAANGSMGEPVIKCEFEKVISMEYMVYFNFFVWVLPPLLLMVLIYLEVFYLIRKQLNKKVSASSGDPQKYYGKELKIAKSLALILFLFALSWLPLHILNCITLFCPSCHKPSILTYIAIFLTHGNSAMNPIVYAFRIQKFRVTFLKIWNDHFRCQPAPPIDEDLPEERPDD
Method: (§1) The human adenosine receptors have been transfected in CHO cells according with the method previously described by Klotz et al. (Naunyn-Schmied. Arch Pharm. 1998, 357: 1-9). Briefly, the cells are grown adherently and maintained in Dulbecco's Modified Eagles Medium with nutrient mixture F12 (DMEM/F12) without nucleosides, containing 10% fetal calf serum, penicillin (100 U/mL), streptomycin (100 μg/mL), L-glutamine (2 mM) and Geneticin (G418, 0.2 mg/ml) at 37° C. in 5% CO2/95% air. For membrane preparation the culture medium is removed and the cells are washed with phosphate-buffered saline and scraped off T75 flasks in ice-cold hypo tonic buffer (5 mM Tris HCl, 1 mM EDTA, pH 7.4). The cell suspension is homogenized with Polytron, the homogenate is spun for 10 min at 1000×g and the supernatant is then centrifuged for 30 min at 100,000×g. The membrane pellet is suspended in 50 mM Tris HCl buffer (pH 7.4) for A1 adenosine receptors, in 50 mM Tris HCl, 10 mM MgCl2 (pH 7.4) for A2A adenosine receptors, in 50 mM Tris HCl, 10 mM MgCl2, 1 mM EDTA (pH 7.4) for A2B and A3 adenosine receptors.
(§2) All new synthesized compounds have been tested to evaluate their affinity to human A1, A2A, A2B and A3 adenosine receptors. Displacement experiments of [^3H]-DPCPX to CHO cells transfected with the human recombinant A1 adenosine receptors are performed for 120 min at 25° C. incubating diluted membranes (50 μg of protein/assay) and at least 6-8 different concentrations of examined antagonists (Varani et al., Mol. Pharmacol., 2000, 57: 968-975). Non-specific binding is determined in the presence of 10 μM of CHA and this is always ≦10% of the total binding. Binding of [^3H]-ZM 241385 to CHO cells transfected with the human recombinant A2A adenosine receptors is performed using a suspension of membranes (50 μg of protein/assay) and at least 6-8 different concentrations of studied antagonists for an incubation time of 60 min at 4° C. Non-specific binding is determined in the presence of 1 μM ZM 241385 and is about 20% of total binding. Competition binding experiments of [^3H]-MRE 2029F20 to CHO cells transfected with the human recombinant A2B adenosine receptors are carried out incubating for 120 min at 4° C. diluted membranes (50 μg of protein/assay) and at least 6-8 different concentrations of examined compounds. Non-specific binding is defined as binding in the presence of 1 μM MRE 3029F20 and is about 25% of total binding. Competition binding experiments of [^3H]-MRE 3008F20 to CHO cells transfected with the human recombinant A3 adenosine receptors^5 are carried out incubating for 120 min at 4° C. diluted membranes (50 μg of protein/assay) and at least 6-8 different concentrations of examined ligands. Non-specific binding is defined as binding in the presence of 1 μM MRE 3008F20 and is about 25% of total binding. Bound and free radioactivity are separated by filtering the assay mixture through Whatman GF/B glass fiber filters using a Micro-Mate 196 cell harvester (Packard Instrument Co.). The filter bound radioactivity is counted on a Top Count (efficiency 57%) with Micro-Scint 20.
(§3) The protein concentration is determined according to a Bio-Rad method (Bradford, Anal Biochem. 1976, 72: 248-254) with bovine albumin as a standard reference. Inhibitory binding constant, Ki, values are calculated from those of IC50 according to Cheng & Prusoff equation (Biochem. Pharmacol 1973, 22: 3099-3108): Ki=IC50/(1+[C*]/KD*) where [C*] is the concentration of the radioligand and KD* its dissociation constant. A weighted non linear least-squares curve fitting program LIGAND (Munson et al., Anal. Biochem 1980, 107: 220-239) is used for computer analysis of inhibition experiments Data are expressed as geometric mean with 95% confidence limits in parentheses. Examples of Animal Models

[2] = target: T2, human A2A adenosine receptors (Homo sapiens, UniProt P29274); assay: Displacement of [3H]ZM241385 binding at human A2A adenosine receptors expressed in CHO cells; conditions: [3H]ZM241385 displacement, n = 3-6, geometric mean (95% confidence limits), read-out: Ki hA2A
T2 construct: expressed in transfected cells; host or cells: CHO cells (membranes)
T2 sequence (P29274 whole entry): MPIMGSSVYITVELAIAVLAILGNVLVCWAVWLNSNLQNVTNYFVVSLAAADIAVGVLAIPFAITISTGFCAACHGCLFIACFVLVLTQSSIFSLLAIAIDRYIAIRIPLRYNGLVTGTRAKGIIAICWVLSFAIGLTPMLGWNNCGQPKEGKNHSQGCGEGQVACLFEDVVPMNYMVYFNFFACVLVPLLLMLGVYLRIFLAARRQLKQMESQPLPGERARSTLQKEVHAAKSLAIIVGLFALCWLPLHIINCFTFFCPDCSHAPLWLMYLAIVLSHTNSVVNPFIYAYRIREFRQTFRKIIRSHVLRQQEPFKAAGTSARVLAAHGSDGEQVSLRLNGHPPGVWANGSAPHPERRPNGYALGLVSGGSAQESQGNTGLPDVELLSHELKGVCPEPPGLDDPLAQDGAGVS
Method: as §1, §2, §3

SMILES	pKi [1]	melting point [°C]	pKi [2]
CCCn1c(=O)c2[nH]c(-c3cc(C)n(CC(=O)Nc4ccc(C)cc4)n3)nc2n(CCC)c1=O [Example 17, 2-[3-(2,6-Dioxo-1,3-dipropyl-2,3,6,7-tetrahydro-1H-purin-8-yl)-5-methyl-pyrazol-1-yl]-N-p-tolyl-acetamide]	< 6.00	> 300	< 6.00
CCCn1c(=O)c2[nH]c(-c3cc(C)n(CC(=O)Nc4ccc(F)cc4)n3)nc2n(CCC)c1=O [Example 5, 2-[3-(2,6-Dioxo-1,3-dipropyl-2,3,6,7-tetrahydro-1H-purin-8-yl)-5-methyl-pyrazol-1-yl]-N-(4-fluoro-phenyl)-acetamide]	6.30	205 to 207	< 6.00
CCCn1c(=O)c2[nH]c(-c3cc(C)n(CC(=O)Nc4cccc(OC)c4)n3)nc2n(CCC)c1=O [Example 14, 2-[3-(2,6-Dioxo-1,3-dipropyl-2,3,6,7-tetrahydro-1H-purin-8-yl)-5-methyl-pyrazol-1-yl]-N-(3-methoxylphenyl)-acetamide]	6.32	274 to 277	< 6.00
CCCn1c(=O)c2[nH]c(-c3cc(C)n(CC(=O)Nc4ccc(C(C)CC)cc4)n3)nc2n(CCC)c1=O (centres unmarked) [Example 12, 2-[3-(2,6-Dioxo-1,3-dipropyl-2,3,6,7-tetrahydro-1H-purin-8-yl)-5-methyl-pyrazol-1-yl]-N-(4-sec-butylphenyl)-acetamide]	< 6.00	268 to 271	< 6.00
CCCn1c(=O)c2[nH]c(-c3cc(C)n(CC(=O)Nc4ccc(OC)c(OC)c4)n3)nc2n(CCC)c1=O [Example 8, 2-[3-(2,6-Dioxo-1,3-dipropyl-2,3,6,7-tetrahydro-1H-purin-8-yl)-5-methyl-pyrazol-1-yl]-N-(3,4-dimethoxyphenyl)-acetamide]	< 6.00	285 to 290	< 6.00
CCCn1c(=O)c2[nH]c(-c3nn(CC(=O)Nc4ccc(Cl)cc4)c(C)c3Cl)nc2n(CCC)c1=O [Example 18, 2-[4-Chloro-3-(2,6-dioxo-1,3-dipropyl-2,3,6,7-tetrahydro-1H-purin-8-yl)-5-methyl-pyrazol-1-yl]-N-(4-chlorophenyl)-acetamide]	< 6.00	–	< 6.00
CCCn1c(=O)c2[nH]c(-c3cc(C)n(CC(=O)Nc4ccc(Cl)c(Cl)c4)n3)nc2n(CCC)c1=O [Example 16, 2-[3-(2,6-Dioxo-1,3-dipropyl-2,3,6,7-tetrahydro-1H-purin-8-yl)-5-methyl-pyrazol-1-yl]-N-(3,4-dichlorophenyl)-acetamide]	< 6.00	298	< 6.00
CCCn1c(=O)c2[nH]c(-c3cc(C)n(CC(=O)Nc4ccccc4)n3)nc2n(CCC)c1=O [Example 1, 2-[3-(2,6-Dioxo-1,3-dipropyl-2,3,6,7-tetrahydro-1H-purin-8-yl)-5-methyl-pyrazol-1-yl]-N-phenyl-acetamide]	6.46	255 to 257	< 6.00
CCCn1c(=O)c2[nH]c(-c3ccn(CC(=O)Nc4ccc(Cl)cc4)n3)nc2n(CCC)c1=O [Example 10, 2-[3-(2,6-Dioxo-1,3-dipropyl-2,3,6,7-tetrahydro-1H-purin-8-yl)-pyrazol-1-yl]-N-(4-chloro-phenyl)-acetamide]	6.85	283 to 285	< 6.00
CCCn1c(=O)c2[nH]c(-c3cc(C)n(CC(=O)Nc4cccc(Cl)c4)n3)nc2n(CCC)c1=O [Example 15, 2-[3-(2,6-Dioxo-1,3-dipropyl-2,3,6,7-tetrahydro-1H-purin-8-yl)-5-methyl-pyrazol-1-yl]-N-(3-chlorophenyl)-acetamide]	6.17	304 to 307	< 6.00
CCCn1c(=O)c2[nH]c(-c3cc(C)n(CC(=O)Nc4ccc(I)cc4)n3)nc2n(CCC)c1=O [Example 2, 2-[3-(2,6-Dioxo-1,3-dipropyl-2,3,6,7-tetrahydro-1H-purin-8-yl)-5-methyl-pyrazol-1-yl]-N-(4-iodophenyl)-acetamide]	< 6.00	286 to 289	< 6.00
CCCn1c(=O)c2[nH]c(-c3nn(CC(=O)Nc4ccc(Cl)cc4)c(C)c3Br)nc2n(CCC)c1=O [Example 19, 2-[4-Bromo-3-(2,6-dioxo-1,3-dipropyl-2,3,6,7-tetrahydro-1H-purin-8-yl)-5-methyl-pyrazol-1-yl]-N-(4-chlorophenyl)-acetamide]	< 6.00	298 to 299	< 6.00
CCCn1c(=O)c2[nH]c(-c3cc(C)n(CC(=O)Nc4ccc(C)c(C)c4)n3)nc2n(CCC)c1=O [Example 7, 2-[3-(2,6-Dioxo-1,3-dipropyl-2,3,6,7-tetrahydro-1H-purin-8-yl)-5-methyl-pyrazol-1-yl]-N-(3,4-dimethylphenyl)-acetamide]	< 6.00	261 to 265	< 6.00
CCCn1c(=O)c2[nH]c(-c3cc(C)n(CC(=O)Nc4ccc(OC)cc4)n3)nc2n(CCC)c1=O [Example 6, 2-[3-(2,6-Dioxo-1,3-dipropyl-2,3,6,7-tetrahydro-1H-purin-8-yl)-5-methyl-pyrazol-1-yl]-N-(4-methoxyphenyl)-acetamide]	< 6.00	293 to 296	< 6.00
